Test results taken from PubChem BioAssay AID328 (DTP/NCI, 2004).
Inconclusive results and toxic doses are left out. The calls were made as follows: active = survival T/C of 150% or more; inactive = T/C below 125% in these data.

System: BDF1 mice, P388 leukemia ip, median survival T/C
Assay: NCI In Vivo Anticancer Drug Screen. Data for tumor model P388 Leukemia (intraperitoneal) in B6D2F1 (BDF1) mice
Conditions: endpoint: median survival time, higher = longer survival
Procedure, shortened: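 Survival ratio, drug arm over vehicle arm, in mice with a transplanted tumour.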

[1] = dose: 12.5 mg/kg/injection, schedule: Q04DX003 (ip), vehicle: saline with Tween-80
[2] = dose: 50.0 mg/kg/injection, schedule: Q01DX009 (ip), vehicle: saline with Tween-80
[3] = dose: 50.0 mg/kg/injection, schedule: Q04DX003 (ip), vehicle: saline with Tween-80
[4] = dose: 100.0 mg/kg/injection, schedule: Q01DX009 (ip), vehicle: saline with Tween-80
[5] = dose: 100.0 mg/kg/injection, schedule: Q04DX003 (ip), vehicle: saline with Tween-80
[6] = dose: 100.0 mg/kg/injection, schedule: Q01DX001 (ip), vehicle: saline with Tween-80
[7] = dose: 200.0 mg/kg/injection, schedule: Q01DX001 (ip), vehicle: saline with Tween-80
[8] = dose: 200.0 mg/kg/injection, schedule: Q01DX009 (ip), vehicle: saline with Tween-80
[9] = dose: 400.0 mg/kg/injection, schedule: Q01DX001 (ip), vehicle: saline with Tween-80
[10] = dose: 25.0 mg/kg/injection, schedule: Q01DX001 (ip), vehicle: saline with Tween-80
[11] = dose: 200.0 mg/kg/injection, schedule: Q04DX003 (ip), vehicle: saline with Tween-80
[12] = dose: 400.0 mg/kg/injection, schedule: Q04DX003 (ip), vehicle: saline with Tween-80

Measured: T/C

COc1cc2c3cc1Oc1c(OC)c(OC)cc4c1C(Cc1cc5c(c(c1)Oc1ccc(cc1)CC3N(C)CC2)OCO5)N(C)CC4 (configuration not stated)
inactive: dose: 5.0 mg/kg/injection, schedule: Q01DX010 (ip), vehicle: saline 90 % of control | dose: 20.0 mg/kg/injection, schedule: Q01DX010 (ip), vehicle: saline 104 % of control | dose: 40.0 mg/kg/injection, schedule: Q01DX010 (ip), vehicle: saline 95 % of control

CC(C)(C)/C([O-])=N/[N+](C)(C)Cc1ccccc1
inactive: dose: 100.0 mg/kg/injection, schedule: Q01DX001 (ip), vehicle: saline 109 % of control | dose: 200.0 mg/kg/injection, schedule: Q01DX001 (ip), vehicle: saline 104 % of control | dose: 400.0 mg/kg/injection, schedule: Q01DX001 (ip), vehicle: saline 104 % of control

NC(=O)Nc1cccc2ccccc12
inactive: dose: 100.0 mg/kg/injection, schedule: Q04DX003 (ip), vehicle: Klucel (hydroxypropylcellulose) (HPC) 88 % of control | dose: 200.0 mg/kg/injection, schedule: Q01DX009 (ip), vehicle: gum acacia 92 % of control | dose: 200.0 mg/kg/injection, schedule: Q04DX003 (ip), vehicle: Klucel (hydroxypropylcellulose) (HPC) 92 % of control | dose: 400.0 mg/kg/injection, schedule: Q01DX009 (ip), vehicle: gum acacia 96 % of control

CCC12C=CCN3CCC4(c5c(C(c6ccc(OC)cc6)c6c(CN(C)C)c7ccccc7n6C)cc(OC)cc5N(C)C4C(O)(C(=O)OC)C1OC(C)=O)C32 (configuration not stated)
inactive: dose: 0.3 mg/kg/injection, schedule: Q01DX009 (ip), vehicle: saline 93 % of control | dose: 0.6 mg/kg/injection, schedule: Q01DX009 (ip), vehicle: saline 98 % of control | dose: 4.0 mg/kg/injection, schedule: Q01DX009 (ip), vehicle: saline 97 % of control | dose: 8.0 mg/kg/injection, schedule: Q01DX009 (ip), vehicle: saline 96 % of control | dose: 15.0 mg/kg/injection, schedule: Q01DX009 (ip), vehicle: saline 107 % of control | dose: 16.0 mg/kg/injection, schedule: Q01DX009 (ip), vehicle: saline 95 % of control | dose: 60.0 mg/kg/injection, schedule: Q01DX009 (ip), vehicle: saline 123 % of control

Cc1ccc2c(c1O)NC(=O)C1CCCN1C2=O (configuration not stated)
inactive: dose: 100.0 mg/kg/injection, schedule: Q04DX002 (ip), vehicle: saline with Tween-80 99 % of control | dose: 200.0 mg/kg/injection, schedule: Q04DX002 (ip), vehicle: saline with Tween-80 102 % of control | dose: 400.0 mg/kg/injection, schedule: Q04DX002 (ip), vehicle: saline with Tween-80 101 % of control

CN1CCN(C(=O)Cc2c[nH]c3ccccc23)CC1
inactive: dose: 6.25 mg/kg/injection, schedule: Q01DX009 (ip), vehicle: saline with Tween-80 105 % of control | [1] 111 % of control | dose: 25.0 mg/kg/injection, schedule: Q04DX003 (ip), vehicle: saline with Tween-80 101 % of control | [2] 95 % of control | [3] 104 % of control | [4] 89 % of control | [5] 113 % of control

S=C(Nc1ccccc1)N(C1CCCCC1)C1CCCCC1
active: [8] 155 % of control
inactive: [6] 100 % of control | [7] 103 % of control | [9] 103 % of control

O=[N+]([O-])c1ccc(N/N=C(\CCl)c2ccccc2)c([N+](=O)[O-])c1
inactive: [10] 109 % of control | dose: 50.0 mg/kg/injection, schedule: Q01DX001 (ip), vehicle: saline with Tween-80 104 % of control | [6] 104 % of control

COC(=O)C(Br)C(OC)c1ccc(Cl)cc1 (configuration not stated)
inactive: [5] 109 % of control | [11] 109 % of control | [12] 118 % of control

O=NN(CCCl)C(=O)NC1CCC(=O)NC1=O (configuration not stated)
active: dose: 3.13 mg/kg/injection, schedule: Q04DX003 (ip), vehicle: saline with Tween-80 272 % of control | dose: 4.0 mg/kg/injection, schedule: Q04DX003 (ip), vehicle: saline with Tween-80 230 % of control | dose: 6.0 mg/kg/injection, schedule: Q04DX003 (ip), vehicle: saline with Tween-80 230 % of control | dose: 6.25 mg/kg/injection, schedule: Q04DX003 (ip), vehicle: saline with Tween-80 272 % of control | dose: 9.0 mg/kg/injection, schedule: Q04DX003 (ip), vehicle: gum acacia 250 % of control | dose: 9.0 mg/kg/injection, schedule: Q04DX003 (ip), vehicle: saline with Tween-80 230 % of control
inactive: [1] 104 % of control | dose: 20.0 mg/kg/injection, schedule: Q04DX003 (ip), vehicle: gum acacia 112 % of control

CC(=O)/C=C/c1ccc([N+](=O)[O-])cc1
inactive: dose: 100.0 mg/kg/injection, schedule: Q04DX003 (ip), vehicle: saline sonified 90 % of control | dose: 200.0 mg/kg/injection, schedule: Q04DX003 (ip), vehicle: saline sonified 90 % of control | dose: 400.0 mg/kg/injection, schedule: Q04DX003 (ip), vehicle: saline sonified 100 % of control

O=C1CCCC1C(=O)Nc1cccc2cccnc12 (configuration not stated)
inactive: [5] 117 % of control | [11] 95 % of control | [12] 100 % of control

CCOC(=O)c1ccc(NS(=O)c2ccccc2)cc1 (configuration not stated)
inactive: [2] 100 % of control | [4] 93 % of control | [8] 111 % of control

COC1=C(C2(O)C(=O)N(C)c3ccccc32)C(=O)C(OC)=C(C2(O)C(=O)N(C)c3ccccc32)C1=O (configuration not stated)
inactive: [6] 91 % of control | [7] 89 % of control | [9] 90 % of control

CC(C=C1CCCCC1)C(=O)O (configuration not stated)
inactive: dose: 100.0 mg/kg/injection, schedule: Q01DX009 (ip), vehicle: saline 113 % of control | dose: 200.0 mg/kg/injection, schedule: Q01DX009 (ip), vehicle: saline 109 % of control | dose: 400.0 mg/kg/injection, schedule: Q01DX009 (ip), vehicle: saline 118 % of control

CCOC(=O)c1c(NC(=O)C(F)(F)F)[nH]c(SSc2[nH]c(NC(=O)C(F)(F)F)c(C(=O)OCC)c2C(=O)OCC)c1C(=O)OCC
inactive: dose: 1.0 mg/kg/injection, schedule: Q01DX009 (ip), vehicle: water 111 % of control | dose: 2.0 mg/kg/injection, schedule: Q01DX009 (ip), vehicle: water 90 % of control | dose: 4.0 mg/kg/injection, schedule: Q01DX009 (ip), vehicle: water 104 % of control | dose: 8.0 mg/kg/injection, schedule: Q01DX009 (ip), vehicle: water 104 % of control | [3] 106 % of control | [5] 117 % of control | [11] 106 % of control

CC1(C)O[Te]2(OC1(C)C)OC(C)(C)C(C)(C)O2
inactive: dose: 12.5 mg/kg/injection, schedule: Q01DX001 (ip), vehicle: saline with Tween-80 104 % of control | [10] 113 % of control

COc1cc(N)c2ncsc2c1[N+](=O)[O-]
inactive: dose: 50.0 mg/kg/injection, schedule: Q01DX009 (ip), vehicle: Klucel (hydroxypropylcellulose) (HPC) 89 % of control | dose: 100.0 mg/kg/injection, schedule: Q01DX009 (ip), vehicle: Klucel (hydroxypropylcellulose) (HPC) 105 % of control | dose: 200.0 mg/kg/injection, schedule: Q01DX009 (ip), vehicle: Klucel (hydroxypropylcellulose) (HPC) 106 % of control

CC1(C)N=C(N)N=C(N)N1c1ccc(CCc2ccc(S(=O)(=O)F)cc2)c(Cl)c1
active: [4] 159 % of control
inactive: dose: 33.0 mg/kg/injection, schedule: Q04DX003 (ip), vehicle: saline sonified 122 % of control

Cc1ccc(CC(N)c2nn[nH]n2)cc1 (configuration not stated)
inactive: dose: 25.0 mg/kg/injection, schedule: Q01DX009 (ip), vehicle: saline with Tween-80 97 % of control | [2] 105 % of control | [4] 100 % of control
